Test results: patent US20260001914A1, “MACROCYCLIC PEPTIDES TARGETING KRAS” (Merck Sharp & Dohme LLC, priority 2022, published 2026)
*1 amine or outer side, *2 acyl side, *3 side chain or, on linkers, in order; H or OH if unused. Where a SMILES comes first, the peptide text is derived from it. Bridges are numbered along the chain shown (N, C = ends). [ ]: non-standard residue; d: D form. The star is where a group is joined. X20 = CN([C@@H](Cc1cnco1)C(=O)[*:2])[*:1]; X62 = O=C([C@@H]1CC[C@H](N[*:1])C1)[*:2]; X80 = Nc1nccn1CCC[C@H](N[*:1])C(=O)[*:2]; Phe(4-NH2) = Nc1ccc(C[C@H](N)C(=O)O)cc1; NHCH2CH2SCH2CO = O=C(CSCCN[*:1])[*:2]; Phe(2-F) = N[C@@H](Cc1ccccc1F)C(=O)O; NMe3Pal = CN[C@@H](Cc1cccnc1)C(=O)O; X1 = O=C(C12CC(CN[*:1])(C1)C2)[*:2]; X53 = C[C@@H](CSCC(=O)[*:2])N[*:1]; NMeF = CN[C@@H](Cc1ccccc1)C(=O)O; 3Pal = N[C@@H](Cc1cccnc1)C(=O)O; d3Pal = N[C@H](Cc1cccnc1)C(=O)O; Ahp(2) = CCCCC[C@H](N)C(=O)O; Cba = N[C@@H](CC1CCC1)C(=O)O; αMeC = C[C@](N)(CS)C(=O)O; Nle = CCCC[C@H](N)C(=O)O; Pyrrolidide = C1CCN(*)C1; AEEA = NCCOCCOCC(=O)O

Each compound was assayed against KRAS-G12D protein (Homo sapiens, UniProt P01116, G12D) (assay: SOS-mediated nucleotide exchange assay (BODIPY-GDP / Tb-streptavidin TR-FRET)).
Chain of KRAS-G12D protein (P01116 1-188 isoform P01116-2 G12D): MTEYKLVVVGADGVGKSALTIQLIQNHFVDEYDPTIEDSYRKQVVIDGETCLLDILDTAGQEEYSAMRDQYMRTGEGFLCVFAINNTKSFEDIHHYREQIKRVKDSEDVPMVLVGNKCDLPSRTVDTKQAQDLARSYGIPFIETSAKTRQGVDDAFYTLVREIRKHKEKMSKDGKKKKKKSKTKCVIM
Type: biochemical

| Compound | EC50 |
| --- | --- |
| CCCC[C@@H]1NC(=O)[C@H](Cc2ccc(OC)cc2)NC(=O)[C@H](CC2CCC2)NC(=O)[C@@H](Cc2cccnc2)NC(=O)[C@H](CCCNC(=N)N)NC(=O)[C@H](Cc2ccccc2)NC(=O)CSC[C@H](C)NC(=O)[C@H](Cc2ccccc2)N(C)C1=O [compound 180, cyclo(F-R-d3Pal-cBuA-TyrOMe-Nle-NMeF-Smcysteamine-ClAc)] (cyclo([Cba]Y(Me)[Nle][NMeF][X53]FR[d3Pal])) | 37.8 nM |
| CCCC[C@@H]1NC(=O)[C@H](Cc2ccc(O)cc2)NC(=O)[C@H](CC(C)C)NC(=O)[C@H](Cc2ccc(N)cc2)NC(=O)[C@H](CCCNC(=N)N)NC(=O)[C@H](Cc2ccccc2)NC(=O)CSCCNC(=O)[C@H](Cc2ccccc2)N(C)C1=O [compound 79, cyclo(F-R~Phe4NH2-L-Y-Nle-NMeF-Cysteamine-ClAc)] (cyclo(FR[Phe(4-NH2)]LY[Nle][NMeF][NHCH2CH2SCH2CO])) | 2360 nM |
| CCCCC[C@@H]1NC(=O)[C@H](Cc2ccc(O)cc2)NC(=O)[C@H](CC(C)C)NC(=O)[C@H](Cc2ccc(O)cc2)NC(=O)[C@H](CCCNC(=N)N)NC(=O)[C@H](Cc2ccccc2)NC(=O)CSC[C@@H](C(=O)NCCOCCOCC(N)=O)NC(=O)[C@H](Cc2ccccc2)N(C)C1=O [compound 57, cyclo(F-R-Y-L-Y-Ahp-NMeF-C3-ClAc)] ({CH2CO}-FRYLY[Ahp(2)][NMeF]C[AEEA]-NH2; thioether N-8) | 482 nM |
| CCCC[C@@H]1NC(=O)[C@H](Cc2ccccc2F)NC(=O)[C@H](CC2CCC2)NC(=O)[C@@H](Cc2cccnc2)NC(=O)[C@H](CCCn2ccnc2N)NC(=O)[C@H](Cc2ccccc2)NC(=O)C23CC(CNC(=O)[C@H](Cc4cccnc4)N(C)C1=O)(C2)C3 [compound 110, cyclo(F-NH2IMNva-d3Pal-cBuA-Phe2F-Nle-NMe3Pal-amBCP)] (cyclo(F[X80][d3Pal][Cba][Phe(2-F)][Nle][NMe3Pal][X1])) | 1.14 nM |
| CCCC[C@@H]1NC(=O)[C@H](CCCCN)NC(=O)[C@H](CCCNC(=N)N)NC(=O)[C@H](Cc2cccc3ccccc23)NC(=O)CSC[C@H](C(N)=O)NC(=O)[C@H](Cc2ccccc2)N(C)C(=O)[C@H](CCCC)NC(=O)[C@H](Cc2ccc(O)cc2)NC1=O [compound 19, cyclo(INal-R-K-Nle-Y-Nle-NMeF-dCl-ClAc)] | 1280 nM |
| CCCCC[C@@H]1NC(=O)[C@H](Cc2ccc(OC)cc2)NC(=O)[C@H](CC2CCC2)NC(=O)[C@H](Cc2cccnc2)NC(=O)[C@H](CCCNC(=N)N)NC(=O)[C@H](Cc2ccccc2F)NC(=O)CSC[C@@](C)(C(N)=O)NC(=O)[C@H](Cc2ccccc2)N(C)C1=O [compound 370, cyclo(Phe2F-R-3Pal-cBuA-TyrOMe-Ahp-NMeF-aMeCl-ClAc)] | 14.9 nM |
| CCCCC[C@@H]1NC(=O)[C@H](Cc2ccc(OC)cc2)NC(=O)[C@H](CC2CCC2)NC(=O)[C@H](Cc2cccnc2)NC(=O)[C@H](CCCNC(=N)N)NC(=O)[C@H](Cc2ccccc2)NC(=O)CSC[C@@](C)(C(N)=O)NC(=O)[C@H](Cc2cnco2)N(C)C1=O [compound 379, cyclo(F-R-3Pal-cBuA-TyrOMe-Ahp-NMeAla5Oxa-aMeCl-ClAc)] ({CH2CO}-FR[3Pal][Cba]Y(Me)[Ahp(2)][X20][αMeC]-NH2; thioether N-8) | 48.9 nM |
| CCCCC[C@@H]1NC(=O)[C@H](CC(=O)N2CCCC2)NC(=O)[C@H](CC2CCC2)NC(=O)[C@H](Cc2cccnc2)NC(=O)[C@H](CCCNC(=N)N)NC(=O)[C@H](Cc2ccccc2)NC(=O)CSC[C@@](C)(C(N)=O)NC(=O)[C@H](Cc2ccccc2)N(C)C1=O [compound 373, cyclo(F-R~3Pal-cBuA-PyD-Ahp-NMeF-aMeCl-ClAc)] ({CH2CO}-FR[3Pal][Cba]D(Pyrrolidide)[Ahp(2)][NMeF][αMeC]-NH2; thioether N-8) | 1970 nM |
| CCCC[C@@H]1NC(=O)[C@H](Cc2cccnc2)NC(=O)[C@H](CCCNC(=N)N)NC(=O)[C@H](Cc2ccccc2)NC(=O)[C@@H]2CC[C@@H](C2)NC(=O)[C@H](Cc2ccccc2)N(C)C(=O)[C@H](CCCC)NC(=O)[C@H](Cc2ccc(OC)cc2)NC1=O [compound 203, cyclo(F-R-3Pal-Nle-TyrOMe-Nle-NMeF-bhcLeu)] (cyclo(FR[3Pal][Nle]Y(Me)[Nle][NMeF][X62])) | 193 nM |
